Results taken from patent US20050273177A1, “Prosthetic device having drug delivery properties” (priority 2004, published 2005).

Test: In vitro PGE-1 elution from coated stents overlaid with a permeable polymer membrane, measured by HPLC
Assay type: physicochemical
Procedure: Various materials presently used in pharmaceutical preparations as solubilizers, crystallization inhibitors, suspension stabilizers and lyophilization agents were mixed with PGE-1. The mixtures were dissolved in solvent systems composed of ethanol, chloroform, water, or mixtures thereof. Prior to coating, stents (provided by different stent manufacturers) were cleaned by sonification in absolute ethanol for thirty minutes, and dried. Each stent was weighed before and after coating. The amount of PGE-1 in the coating solution was determined by high performance liquid chromatography analysis (HPLC), and used to calculate the percent by weight of PGE-1 on the stent. To confirm this value, the coating was dissolved (from the stent) and the PGE-1 content analyzed by HPLC.
Drug coatings on the stents were assessed using scanning electron microscopy (SEM) for: (a) smoothness, (b) uniformity, and (c) lack of cracking. Stents that met these criteria, were overlaid with a thin membrane of non-erodable polymer matrix to retard the release of PGE-1 from the surface of the stents. Vapor-deposition of the polymer matrix was carried out according to the manufacturer's protocol, and the thickness of the polymer matrix membrane was measured using a Tencor device.
Using the most desirable coating combination, twenty coronary stents were coated with either 100 micrograms or 250 micrograms of PGE-1, and overlaid with the polymer matrix membrane. Five stents from each drug concentration were expanded by insertion of a balloon catheter. The stents were examined by SEM after deposition of the pharmaceutical layer 14, after applying the membrane 16, and after expansion of the stents 12.
PGE-1 elution profiles were determined for each group of stents 12. In vitro PGE-1 release curves were performed using HPLC. Drug elution profiles were measured in phosphate buffered saline (pH 7.4) using a LabQuake 360° degree rotator, at ambient temperature. At each time point, the stents were removed from the one milliliter sample (typically, after 24 hours) and transferred to the next aliquot. HPLC analysis of the eluent was performed using a Waters Alliance system equipped with a 996 photodiode array detector.
HPLC Program Conditions/Settings:
Column: 4.6 mm×150 mm Reverse Phase C18
Photo-diode array UV detector set to scan 190 to 300 nm
Solvent system: 35% Acetonitrile/65% water with 0.1% acetic acid
In Example 2 a second set of twenty stents were coated as described above, except the polymer membrane overcoat 16 was twice the thickness as the former.

Period of initial burst of PGE-1 release (FIGS. 2A and 2B, thinner membrane, 100 or 250 μg PGE-1): 48-96 hours | Duration of slow, sustained release of the drug (FIGS. 2A and 2B, thinner membrane, after the initial burst): approximately sixty | PGE-1 Released (%) (Study 1, 73 days, expanded stent coated with 100 μg PGE-1, PBS pH 7.4, ambient temperature): 82% | PGE-1 Released (%) (Study 1, 73 days, expanded stent coated with 250 μg PGE-1, PBS pH 7.4, ambient temperature): 83% | PGE-1 Released (%) (Study 1, 73 days, unexpanded stent coated with 100 μg PGE-1, PBS pH 7.4, ambient temperature): 37% | PGE-1 Released (%) (Study 1, 73 days, unexpanded stent coated with 250 μg PGE-1, PBS pH 7.4, ambient temperature): 46% | PGE-1 Released (%) (Study 2 (membrane twice the thickness), 35 days, expanded stent coated with 100 μg PGE-1, PBS pH 7.4): 71% | PGE-1 Released (%) (Study 2 (membrane twice the thickness), 35 days, expanded stent coated with 250 μg PGE-1, PBS pH 7.4): 26% | PGE-1 Released (%) (Study 2 (membrane twice the thickness), 35 days, unexpanded stent coated with 100 μg PGE-1, PBS pH 7.4): 19% | PGE-1 Released (%) (Study 2 (membrane twice the thickness), 35 days, unexpanded stent coated with 250 μg PGE-1, PBS pH 7.4): 26%
SMILES: CCCCC[C@H](O)/C=C/[C@H]1[C@H](O)CC(=O)[C@@H]1CCCCCCC(=O)O [PGE-1, prostaglandin E-1]
Release profile with thicker polymer overcoat compared with thinner membrane (FIGS. 3A and 3B, membrane twice the thickness): initial release of PGE-1 is delayed and the overall amount of PGE-1 eluted from the stents 12 over time is reduced
